Molecules are shown by their SMILES. Where two headings read alike, the source gives them in different places.

One experiment addresses recombinant human PDE5 (Homo sapiens (Human), UniProt O76074). The experiment in a line: PDE5 inhibition, IMAP fluorescence polarization assay. The format is biochemical. As to conditions: read-out: IC50 μM against PDE5. The method, then:
(§1) Compounds according to the present disclosure were tested for their in vitro ability to inhibit recombinant human PDE5, COX1 and COX2 enzymes at screening doses of 50, 100 and 100 μM respectively.
PDE activity was measured using the IMAP fluorescence polarization assay (Molecular Devices) in which binding of hydrolyzed cyclic nucleotide substrate to immobilized metal coordination complexes increases fluorescence polarization (FP). Tetramethylrhodamine (TAMRA)-cGMP and fluorescein-cAMP were used as substrates, each at final concentration of 50 nmol/L. The PDE assay was done according to the manufacturer's specifications using either whole cell lysates or recombinant enzymes.
A general note: Polarisation of emitted light reports the rotation of a fluorescent probe.

The subject of experiment [1] is human breast MDA-MB-231 tumor cell line. The experiment in a line: Tumor cell growth assay (Cell Titer Glo). The format is cell-based. As to conditions: read-out: IC50 μM against MDA-MB-231.
Experiment [2] relates to human colorectal HT-29 tumor cell line. As to the kind of experiment: Tumor cell growth assay (Cell Titer Glo). The class given is cell-based. As to conditions: read-out: IC50 μM against HT-29. A general note: In ATP-based viability assays light output follows the ATP content of the culture.
Another experiment has as its target COX2 (Ovis aries (Sheep), UniProt P79208). As to the kind of experiment: COX-2 activity, colorimetric assay. The class given is biochemical, ovine. As to conditions: screening dose 100 μM; read-out: IC50 μM against COX2. Here is the method:
as §1
(§2) COX-1 and COX-2 activities were measured using purified ovine COX-1 and COX-2 with colorimetric assay kits obtained from Cayman Chemical Co. (Ann Arbor, Mich.). The activities of COX-1 and COX-2 were measured after the addition of arachidonic acid and incubation at 25° C. for 5 min by absorbance at 590 nm as specified by the manufacturer.

In the next experiment the target is COX1 (Ovis aries (Sheep), UniProt P05979). The experiment in a line: COX-1 activity, colorimetric assay. Particulars: screening dose 100 μM; read-out: IC50 μM against COX1. The format is biochemical, ovine. The method, then:
as §1, §2

The mark [3] stands for this setting: recombinant human PDE5, IC50 determined if inhibition >50% at 50 μM screening dose.

Chain of COX2 (P79208 17-603): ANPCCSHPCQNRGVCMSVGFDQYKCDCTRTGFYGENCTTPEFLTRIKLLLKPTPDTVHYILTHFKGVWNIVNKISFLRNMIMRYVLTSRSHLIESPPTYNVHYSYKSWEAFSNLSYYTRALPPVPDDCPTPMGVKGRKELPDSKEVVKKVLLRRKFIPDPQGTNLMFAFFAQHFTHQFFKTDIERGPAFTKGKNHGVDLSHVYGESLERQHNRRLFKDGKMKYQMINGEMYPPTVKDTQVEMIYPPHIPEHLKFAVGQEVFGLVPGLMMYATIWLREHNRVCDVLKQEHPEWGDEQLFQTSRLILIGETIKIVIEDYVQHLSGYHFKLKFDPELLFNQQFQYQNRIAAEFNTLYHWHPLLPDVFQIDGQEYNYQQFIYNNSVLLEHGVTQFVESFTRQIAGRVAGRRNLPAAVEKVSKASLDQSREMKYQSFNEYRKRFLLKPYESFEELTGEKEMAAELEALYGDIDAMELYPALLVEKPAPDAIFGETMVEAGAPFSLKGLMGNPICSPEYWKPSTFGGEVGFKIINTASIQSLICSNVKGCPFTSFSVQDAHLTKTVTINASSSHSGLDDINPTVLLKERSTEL
Chain of COX1 (P05979 25-600): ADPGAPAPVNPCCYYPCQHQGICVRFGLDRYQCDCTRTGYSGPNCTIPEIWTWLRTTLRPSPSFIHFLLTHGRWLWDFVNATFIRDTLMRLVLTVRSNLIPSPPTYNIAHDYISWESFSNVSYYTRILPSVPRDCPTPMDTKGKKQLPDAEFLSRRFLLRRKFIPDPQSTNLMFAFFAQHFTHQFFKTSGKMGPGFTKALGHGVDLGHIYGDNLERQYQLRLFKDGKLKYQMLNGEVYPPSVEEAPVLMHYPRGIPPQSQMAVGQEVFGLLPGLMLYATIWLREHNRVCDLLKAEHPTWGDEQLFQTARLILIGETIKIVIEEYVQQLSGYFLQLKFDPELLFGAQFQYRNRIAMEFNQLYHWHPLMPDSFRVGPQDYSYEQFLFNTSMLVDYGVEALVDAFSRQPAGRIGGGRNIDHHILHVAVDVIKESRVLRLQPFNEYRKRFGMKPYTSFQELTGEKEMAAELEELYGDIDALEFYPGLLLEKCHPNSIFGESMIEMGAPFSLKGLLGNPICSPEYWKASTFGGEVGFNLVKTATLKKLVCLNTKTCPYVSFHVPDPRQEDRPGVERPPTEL

As usually defined, the IC50 is the point on the concentration scale where inhibition reaches its midpoint. On to `COc1ccc(C2CC(C(C)(C)C)=NN2c2ccc(C(=O)O)cc2)cc1` (centres unmarked) [Compound 1, 4-(3-tert-Butyl-5-(4-methoxyphenyl)-4,5-dihydro-1H-pyrazol-1-yl)benzoic acid], for which the IC50 was 2.02 µM on recombinant human PDE5 (setting [3]); more than 50 µM in experiment [1] (MDA-MB-231, 72 hours); more than 50 µM in experiment [2] (HT-29, 72 hours); more than 100 µM on COX2; more than 100 µM at COX1.

Take `CC(C)(C)C1=NN(c2ccc(C(=O)O)cc2)C(c2ccc([N+](=O)[O-])cc2)C1` (centres unmarked) [Compound 2, 4-(3-tert-Butyl-5-(4-nitrophenyl)-4,5-dihydro-1H-pyrazol-1-yl)benzoic acid]: the IC50 was 5.7 µM at recombinant human PDE5 (setting [3]); more than 50 µM in experiment [1] (MDA-MB-231, 72 hours); more than 50 µM in experiment [2] (HT-29, 72 hours); more than 100 µM on COX2; more than 100 µM on COX1.

With `CC(C)(C)C1=NN(c2ccc(C(=O)O)cc2)C(c2cccc([N+](=O)[O-])c2)C1` (centres unmarked) [Compound 3, 4-(3-tert-Butyl-5-(3-nitrophenyl)-4,5-dihydro-1H-pyrazol-1-yl)benzoic acid], the 50% inhibitory concentration (IC50) on recombinant human PDE5 (setting [3]) was 3.2 µM; in experiment [1] (72 hours), more than 50 µM; in experiment [2] (72 hours), more than 50 µM; at COX2, more than 100 µM; at COX1, more than 100 µM.

`COc1ccc(C2CC(C(C)(C)C)=NN2c2ccc(C(=O)O)cc2)c(OC)c1` (centres unmarked) [Compound 4, 4-(3-tert-Butyl-5-(2,4-dimethoxyphenyl)-4,5-dihydro-1H-pyrazol-1-yl)benzoic acid]: the IC50 on recombinant human PDE5 is 23.5 µM; in experiment [1] (MDA-MB-231, 72 hours), more than 50 µM; in experiment [2] (HT-29, 72 hours), more than 50 µM; at COX2, more than 100 µM; at COX1, more than 100 µM.

For the molecule `CC(C)(C)C1=NN(c2ccc(C(=O)O)cc2)C(c2ccc(O)cc2)C1` (centres unmarked) [Compound 5, 4-(3-tert-Butyl-5-(4-hydroxyphenyl)-4,5-dihydro-1H-pyrazol-1-yl)benzoic acid], the IC50 on recombinant human PDE5 (setting [3]) is 2.1 µM; in experiment [1] (MDA-MB-231, 72 hours), more than 50 µM; in experiment [2] (HT-29, 72 hours), more than 50 µM; on COX2, more than 100 µM; on COX1, more than 100 µM.

Consider `CC(C)(C)C1=NN(c2cccc(C(=O)O)c2)C(c2ccc(Cl)cc2)C1` (centres unmarked) [Compound 6, 3-(3-tert-Butyl-5-(4-chlorophenyl)-4,5-dihydro-4H-pyrazol-1-yl)benzoic acid], for which the IC50 at recombinant human PDE5 (setting [3]) was 9.9 µM; in experiment [1] (MDA-MB-231, 72 hours) it was more than 50 µM; in experiment [2] (HT-29, 72 hours), 39.9 µM; at COX2, more than 100 µM; on COX1 it was more than 100 µM.

As for `COc1ccc(C2CC(c3ccccc3)=NN2c2ccc(C(=O)O)cc2)cc1` (centres unmarked) [Compound 7, 4-(5-(4-Methoxyphenyl)-3-phenyl-4,5-dihydro-1H-pyrazol-1-yl)benzoic acid], the IC50 at recombinant human PDE5 (setting [3]) was 1.2 µM; in experiment [1] (MDA-MB-231, 72 hours), 48 µM; in experiment [2] (HT-29, 72 hours) it was 36.7 µM; on COX2, more than 100 µM; on COX1 it was more than 100 µM.

Regarding `COc1ccc(C2CC(c3ccccc3OC)=NN2c2ccc(C(=O)O)cc2)cc1` (centres unmarked) [Compound 8, 4-(3-(2-Methoxyphenyl)-5-(4-methoxyphenyl)-4,5-dihydro-1H-pyrazol-1-yl)benzoic acid], the IC50 was 3.2 µM at recombinant human PDE5 (setting [3]); more than 50 µM in experiment [1] (MDA-MB-231, 72 hours); more than 50 µM in experiment [2] (HT-29, 72 hours); more than 100 µM at COX2; more than 100 µM at COX1.

With `COc1ccc(C2CC(c3cccc(OC)c3)=NN2c2ccc(C(=O)O)cc2)cc1` (centres unmarked) [Compound 9, 4-(3-(3-Methoxyphenyl)-5-(4-methoxyphenyl)-4,5-dihydro-1H-pyrazol-1-yl)benzoic acid], the IC50 at recombinant human PDE5 (setting [3]) is 1.8 µM; in experiment [1] (MDA-MB-231, 72 hours) it was 45.6 µM; in experiment [2] (HT-29, 72 hours) it was 25.9 µM; at COX2, more than 100 µM; at COX1, more than 100 µM.

Turning to `COc1ccc(C2CC(c3ccc(OC)c(OC)c3)=NN2c2ccc(C(=O)O)cc2)cc1` (centres unmarked) [Compound 10, 4-(3-(3,4-Dimethoxyphenyl)-5-(4-methoxyphenyl)-4,5-dihydro-1H-pyrazol-1-yl)benzoic acid], the IC50 at recombinant human PDE5 (setting [3]) was 6.9 µM; in experiment [1] (MDA-MB-231, 72 hours), more than 50 µM; in experiment [2] (HT-29, 72 hours) it was 42.5 µM; at COX2, more than 100 µM; at COX1 it was more than 100 µM.

Consider `COc1ccc(C2CC(c3ccccc3)=NN2c2ccc(S(N)(=O)=O)cc2)cc1` (centres unmarked) [Compound 11, 4-(5-(4-Methoxyphenyl)-3-phenyl-4,5-dihydro-1H-pyrazol-1-yl)benzenesulfonamide], for which the IC50 at recombinant human PDE5 (setting [3]) was 3.8 µM; in experiment [1] (MDA-MB-231, 72 hours) it was 27.6 µM; in experiment [2] (HT-29, 72 hours), 15.6 µM; on COX2 it was more than 100 µM; on COX1, more than 100 µM.

Consider `CC(C)(C)C1=NN(c2ccc(C(=O)O)cc2)C(c2ccc(Cl)c(Cl)c2)C1` (centres unmarked) [Compound 13, 4-(3-(tert-Butyl)-5-(3,4-dichlorophenyl)-4,5-dihydro-1H-pyrazol-1-yl)benzoic acid], for which the IC50 on recombinant human PDE5 (setting [3]) is 5.5 µM; in experiment [1] (MDA-MB-231, 72 hours), more than 50 µM; in experiment [2] (HT-29, 72 hours) it was 25.7 µM; on COX2, more than 100 µM; at COX1, more than 100 µM.

As to `CC(C)(C)C1=NN(c2ccc(C(=O)O)cc2)C(c2ccccc2Br)C1` (centres unmarked) [Compound 14, 4-(5-(2-Bromophenyl)-3-(tert-butyl)-4,5-dihydro-1H-pyrazol-1-yl)benzoic acid], the IC50 was 6.9 µM at recombinant human PDE5 (setting [3]); more than 50 µM in experiment [1] (MDA-MB-231, 72 hours); 39.6 µM in experiment [2] (HT-29, 72 hours); more than 100 µM on COX2; more than 100 µM on COX1.

For the molecule `CCOc1ccc(C2CC(C(C)(C)C)=NN2c2ccc(C(=O)O)cc2)cc1` (centres unmarked) [Compound 15, 4-(3-(tert-Butyl)-5-(4-ethoxyphenyl)-4,5-dihydro-1H-pyrazol-1-yl)benzoic acid], the IC50 at recombinant human PDE5 (setting [3]) was 2.9 µM; in experiment [1] (MDA-MB-231, 72 hours), more than 50 µM; in experiment [2] (HT-29, 72 hours) it was 6 µM; on COX2 it was more than 100 µM; at COX1, more than 100 µM.

As to `CC(C)(C)C1=NN(c2ccc(C(=O)O)cc2)C(c2cccc(Br)c2)C1` (centres unmarked) [Compound 16, 4-(5-(3-Bromophenyl)-3-(tert-butyl)-4,5-dihydro-1H-pyrazol-1-yl)benzoic acid], the IC50 on recombinant human PDE5 (setting [3]) was 3.1 µM; in experiment [1] (MDA-MB-231, 72 hours) it was more than 50 µM; in experiment [2] (HT-29, 72 hours) it was 8.8 µM; at COX2 it was more than 100 µM; at COX1, more than 100 µM.

For the molecule `CC(C)(C)C1=NN(c2ccc(C(=O)O)cc2)C(c2ccccc2Cl)C1` (centres unmarked) [Compound 17, 4-(3-(tert-Butyl)-5-(2-chlorophenyl)-4,5-dihydro-1H-pyrazol-1-yl)benzoic acid], the IC50 at recombinant human PDE5 (setting [3]) was 1.9 µM; in experiment [1] (MDA-MB-231, 72 hours), more than 50 µM; in experiment [2] (HT-29, 72 hours), 20.8 µM; on COX2, more than 100 µM; on COX1, more than 100 µM.

For `CC(C)(C)C1=NN(c2ccc(C(=O)O)cc2)C(c2ccccc2F)C1` (centres unmarked) [Compound 18, 4-(3-(tert-Butyl)-5-(2-fluorophenyl)-4,5-dihydro-1H-pyrazol-1-yl)benzoic acid], the IC50 was 3.3 µM at recombinant human PDE5 (setting [3]); more than 50 µM in experiment [1] (MDA-MB-231, 72 hours); more than 50 µM in experiment [2] (HT-29, 72 hours); more than 100 µM at COX2; more than 100 µM on COX1.

As to `CC(C)(C)C1=NN(c2ccc(C(=O)O)cc2)C(c2cccc(F)c2)C1` (centres unmarked) [Compound 19, 4-(3-(tert-Butyl)-5-(3-fluorophenyl)-4,5-dihydro-1H-pyrazol-1-yl)benzoic acid], the IC50 at recombinant human PDE5 (setting [3]) was 2.7 µM; in experiment [1] (MDA-MB-231, 72 hours), more than 50 µM; in experiment [2] (HT-29, 72 hours) it was more than 50 µM; at COX2, more than 100 µM; at COX1 it was more than 100 µM.

As to `CCOc1ccccc1C1CC(C(C)(C)C)=NN1c1ccc(C(=O)O)cc1` (centres unmarked) [Compound 20, 4-(3-(tert-Butyl)-5-(2-ethoxyphenyl)-4,5-dihydro-1H-pyrazol-1-yl)benzoic acid], the IC50 at recombinant human PDE5 (setting [3]) was 2 µM; in experiment [1] (72 hours), more than 50 µM; in experiment [2] (72 hours), 22 µM; at COX2 it was more than 100 µM; on COX1 it was more than 100 µM.

In the case of `CC(C)(C)C1=NN(c2ccc(C(=O)O)cc2)C(c2ccc(Cl)cc2)C1` (centres unmarked) [Compound 21, 4-(3-tert-Butyl-5-(4-chlorophenyl)-4,5-dihydro-1H-pyrazol-1-yl)benzoic acid], the IC50 is 8.7 µM at recombinant human PDE5 (setting [3]); more than 50 µM in experiment [1] (MDA-MB-231, 72 hours); more than 50 µM in experiment [2] (HT-29, 72 hours); more than 100 µM at COX2; more than 100 µM at COX1.

`CC(C)(C)C1=NN(c2ccc(C(=O)O)cc2)C(c2ccccc2)C1` (centres unmarked) [Compound 22, 4-(3-tert-Butyl-5-phenyl-4,5-dihydro-1H-pyrazol-1-yl)benzoic acid]: the IC50 at recombinant human PDE5 (setting [3]) is 6.22 µM; in experiment [1] (MDA-MB-231, 72 hours), more than 50 µM; in experiment [2] (HT-29, 72 hours), more than 50 µM; on COX2 it was more than 100 µM; on COX1 it was more than 100 µM.

Turning to `Cc1ccc(C2CC(C(C)(C)C)=NN2c2ccc(C(=O)O)cc2)cc1` (centres unmarked) [Compound 23, 4-(3-tert-Butyl-5-p-tolyl-4,5-dihydro-1H-pyrazol-1-yl)benzoic acid], the half-inhibitory concentration (IC50) is 8.4 µM at recombinant human PDE5 (setting [3]); more than 50 µM in experiment [1] (MDA-MB-231, 72 hours); more than 50 µM in experiment [2] (HT-29, 72 hours); more than 100 µM at COX2; more than 100 µM on COX1.

Source of the values: patent US9388139B2, “Derivatives of celeboxib, use thereof and preparation thereof” (German University, priority 2011, dated 2016).
